Test results as given in PubChem BioAssay (NCI).
Several values for one entry are separate records, joined by “and”; a condition that tells them apart may be missing. Equal entries are not always repeated.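 48-hour exposure; five concentrations; linearly interpolated endpoints. Here, GI50 denotes the concentration required for 50% inhibition of growth. TGI: total growth inhibition.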

Columns and labels:
Assay in all cases: NCI tumour cell line growth inhibition, 48 h
K-562 leukemia = test system: K-562 leukemia
LXFL 529 NSCLC = test system: LXFL 529 NSCLC
OVCAR-5 ovarian = test system: OVCAR-5 ovarian
SK-MEL-5 melanoma = test system: SK-MEL-5 melanoma
KM20L2 colon = test system: KM20L2 colon
NCI-H23 lung = test system: NCI-H23 lung
SF-268 CNS = test system: SF-268 CNS
RXF-631 renal = test system: RXF-631 renal
UACC-62 melanoma = test system: UACC-62 melanoma
SF-539 CNS = test system: SF-539 CNS
UO-31 renal = test system: UO-31 renal
MDA-MB-231 breast = test system: MDA-MB-231 breast
OVCAR-4 ovarian = test system: OVCAR-4 ovarian
P388/ADR leukemia = test system: P388/ADR leukemia
OVCAR-8 ovarian = test system: OVCAR-8 ovarian
PC-3 prostate = test system: PC-3 prostate
COLO 205 colon = test system: COLO 205 colon
SNB-78 CNS = test system: SNB-78 CNS

SMILES	TGI (K-562 leukemia)	GI50 (OVCAR-5 ovarian)	TGI (OVCAR-5 ovarian)	GI50 (SK-MEL-5 melanoma)	TGI (SK-MEL-5 melanoma)	TGI (KM20L2 colon) [µM]	GI50 (SF-268 CNS) [µM]	TGI (SF-268 CNS)	TGI (UACC-62 melanoma)	GI50 (UO-31 renal) [µM]	TGI (UO-31 renal)	TGI (MDA-MB-231 breast)	GI50 (OVCAR-4 ovarian)	TGI (OVCAR-4 ovarian)	TGI (P388/ADR leukemia) [µM]	GI50 (OVCAR-8 ovarian)	GI50 (PC-3 prostate) [µM]	TGI (PC-3 prostate)	TGI (COLO 205 colon)	further results
C1CN1c1nc(N2CC2)nc(N2CC2)n1	77.9 µM	13.7 µM	42 µM and 31.4 µM	6.93 µM	19.6 µM and 14 µM	47.7	1.45	37.5 µM and 14.8 µM	14.8 µM and 17 µM	1.28	23.4 µM and 3.68 µM	56.5 µM and 36.4 µM	13.8 µM	36.5 µM and 20.3 µM	16.7	5.11 µM	20.2	69.3 µM and > 71.2 µM	32 µM and 41 µM	TGI (LXFL 529 NSCLC): 29.7 µM; GI50 (NCI-H23 lung): 5.55 µM; TGI (NCI-H23 lung): 20 µM and 15 µM; TGI (RXF-631 renal): 42.3 µM; GI50 (UACC-62 melanoma): 3.75 µM; GI50 (SF-539 CNS): 1.78 µM; TGI (SF-539 CNS): 12.8 µM and 8.65 µM; TGI (OVCAR-8 ovarian): 38.8 µM and 16.2 µM
C[C@@]1(CO)[C@H](O)CC[C@@]2(C)[C@H]1CC[C@H]1C[C@@H]3C[C@@]12CC[C@@]3(O)COC(=O)CN	68.4 µM and > 5 µM and 231 µM	31.2 µM and 137 µM and 33.9 µM	> 93.2 µM and > 500 µM and 188 µM	41.9 µM and 6.06 µM	> 500 µM and 95.7 µM	> 500	65.6	> 500 µM and 242 µM	> 500 µM and 131 µM	9.27	> 80.6 µM and 201 µM	> 89.6 µM and 172 µM	> 500 µM and 111 µM	> 87.1 µM and > 500 µM and 182 µM	126	2.29 µM and 12.6 µM and 4.01 µM	3.29	150 µM	39.7 µM and 193 µM	GI50 (K-562 leukemia): 12.9 µM; GI50 (SNB-78 CNS): > 500 µM; TGI (SNB-78 CNS): > 500 µM; GI50 (KM20L2 colon): 61.2 µM and 28.7 µM and 129 µM; GI50 (MDA-MB-231 breast): 45.4 µM; GI50 (COLO 205 colon): 82.4 µM
